# ChEMBL document CHEMBL1201862, “PubChem BioAssay data set” (2004)
#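 Growth conditions: 96-well plates. Treatment: test compound, 48 hours, 5 concentrations. Analysis: linear interpolation between bracketing concentrations; unreached endpoints set to highest concentration. At the GI50, growth is halved.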 The source made the active and inactive calls. No stated cut-off is given here; in the data, active = GI50 up to about 1.1 µM and inactive = higher.
# Tests used:
# Test in all cases: growth of human tumour cells (NCI), 48 h
# SK-MEL-5 = tested on: SK-MEL-5
# NCI-H226 = tested on: NCI-H226
# BT-549 = tested on: BT-549
# SK-OV-3 = tested on: SK-OV-3
# T47D = tested on: T47D
# HOP-92 = tested on: HOP-92
# RXF 393 = tested on: RXF 393
# DU-145 = tested on: DU-145
# MDA-N = tested on: MDA-N
# LOX IMVI = tested on: LOX IMVI
# OVCAR-4 = tested on: OVCAR-4
# SK-MEL-2 = tested on: SK-MEL-2
# UACC-62 = tested on: UACC-62
# RPMI-8226 = tested on: RPMI-8226
# OVCAR-5 = tested on: OVCAR-5
# HCT-116 = tested on: HCT-116
# MDA-MB-231 = tested on: MDA-MB-231
# HT-29 = tested on: HT-29
# SK-MEL-28 = tested on: SK-MEL-28
# A549 = tested on: A549
# COLO 205 = tested on: COLO 205
# NCI/ADR-RES = tested on: NCI/ADR-RES
# SW-620 = tested on: SW-620
# M14 = tested on: M14
# CCRF-CEM = tested on: CCRF-CEM
# SF-295 = tested on: SF-295
# Hs-578T = tested on: Hs-578T
# SNB-19 = tested on: SNB-19
# MDA-MB-435 = tested on: MDA-MB-435
# KM12 = tested on: KM12
# Malme-3M = tested on: Malme-3M
# HOP-62 = tested on: HOP-62
# EKVX = tested on: EKVX
# SNB-75 = tested on: SNB-75
# HCT-15 = tested on: HCT-15
# U-251 = tested on: U-251
# TK-10 = tested on: TK-10
# MOLT-4 = tested on: MOLT-4
# NCI-H522 = tested on: NCI-H522
# ACHN = tested on: ACHN
# CAKI-1 = tested on: CAKI-1
# A498 = tested on: A498
# PC-3 = tested on: PC-3
# OVCAR-3 = tested on: OVCAR-3
# OVCAR-8 = tested on: OVCAR-8
# UACC-257 = tested on: UACC-257
# K562 = tested on: K562
# SN12C = tested on: SN12C
# IGROV-1 = tested on: IGROV-1
# UO-31 = tested on: UO-31
# NCI-H23 = tested on: NCI-H23
# 786-0 = tested on: 786-0
# SF-268 = tested on: SF-268
structure (smiles),measurement,setting,value
CCOC(=O)[C@@H]1[C@@H](c2ccccc2)N(C)O[C@@]1(c1ccccc1)C(F)(F)F,GI50,SK-MEL-5,27 µM (inactive)
same,GI50,NCI-H226,23.1 µM (inactive)
same,GI50,BT-549,> 100 µM (inactive)
same,GI50,SK-OV-3,43.7 µM (inactive)
same,GI50,T47D,67.9 µM (inactive)
same,GI50,HOP-92,> 100 µM (inactive)
same,GI50,RXF 393,40.2 µM (inactive)
same,GI50,DU-145,> 100 µM (inactive)
same,GI50,MDA-N,52.8 µM (inactive)
same,GI50,LOX IMVI,70.5 µM (inactive)
same,GI50,OVCAR-4,77.3 µM (inactive)
same,GI50,SK-MEL-2,25.5 µM (inactive)
same,GI50,UACC-62,43.5 µM (inactive)
same,GI50,RPMI-8226,20.7 µM (inactive)
same,GI50,OVCAR-5,> 100 µM (inactive)
same,GI50,HCT-116,36.5 µM (inactive)
same,GI50,MDA-MB-231,> 100 µM (inactive)
same,GI50,HT-29,18.7 µM (inactive)
same,GI50,SK-MEL-28,85.9 µM (inactive)
same,GI50,A549,47.3 µM (inactive)
same,GI50,COLO 205,> 100 µM (inactive)
same,GI50,NCI/ADR-RES,> 100 µM (inactive)
same,GI50,SW-620,43.7 µM (inactive)
same,GI50,M14,31 µM (inactive)
same,GI50,CCRF-CEM,20.1 µM (inactive)
same,GI50,SF-295,64.6 µM (inactive)
same,GI50,Hs-578T,> 100 µM (inactive)
same,GI50,SNB-19,> 100 µM (inactive)
same,GI50,MDA-MB-435,28.4 µM (inactive)
same,GI50,KM12,58.9 µM (inactive)
same,GI50,Malme-3M,44.2 µM (inactive)
same,GI50,HOP-62,> 100 µM (inactive)
same,GI50,EKVX,86.3 µM (inactive)
same,GI50,SNB-75,> 100 µM (inactive)
same,GI50,HCT-15,40.1 µM
same,GI50,U-251,50.4 µM (inactive)
same,GI50,TK-10,> 100 µM (inactive)
same,GI50,MOLT-4,> 10 µM (inactive)
same,GI50,NCI-H522,39.9 µM (inactive)
same,GI50,ACHN,44.8 µM (inactive)
same,GI50,CAKI-1,> 100 µM (inactive)
same,GI50,A498,> 100 µM (inactive)
same,GI50,PC-3,58.5 µM (inactive)
same,GI50,OVCAR-3,97.1 µM (inactive)
same,GI50,OVCAR-8,> 100 µM (inactive)
same,GI50,UACC-257,55 µM (inactive)
same,GI50,K562,> 10 µM (inactive)
same,GI50,SN12C,> 100 µM (inactive)
same,GI50,IGROV-1,> 100 µM (inactive)
same,GI50,UO-31,> 100 µM (inactive)
same,GI50,NCI-H23,59.6 µM (inactive)
same,GI50,786-0,> 100 µM (inactive)
same,GI50,SF-268,> 100 µM (inactive)
